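48-hour exposure; five concentrations; linearly interpolated endpoints. At the GI50, growth is halved.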 Calls of active or inactive are those of the source. Cut-off read from the data, not from the text of the source: active = GI50 up to about 1.1 µM and inactive = higher.
How the values were obtained:
Assay in all cases: growth of human tumour cells (NCI), 48 h
HT-29 = tested on: HT-29
786-0 = tested on: 786-0
M14 = tested on: M14
MDA-N = tested on: MDA-N
EKVX = tested on: EKVX
NCI/ADR-RES = tested on: NCI/ADR-RES
SK-MEL-5 = tested on: SK-MEL-5
SF-295 = tested on: SF-295
CAKI-1 = tested on: CAKI-1
Hs-578T = tested on: Hs-578T
A498 = tested on: A498
HCT-15 = tested on: HCT-15
SK-MEL-2 = tested on: SK-MEL-2
RXF 393 = tested on: RXF 393
SK-OV-3 = tested on: SK-OV-3
SF-268 = tested on: SF-268
Malme-3M = tested on: Malme-3M
OVCAR-8 = tested on: OVCAR-8
LOX IMVI = tested on: LOX IMVI

Compound | GI50 (HT-29) | GI50 (786-0) | GI50 (M14) | GI50 (MDA-N) | GI50 (EKVX) | GI50 (NCI/ADR-RES) | GI50 (SK-MEL-5) | GI50 (SF-295) | GI50 (CAKI-1) | GI50 (Hs-578T) | GI50 (A498) | GI50 (HCT-15) | GI50 (SK-MEL-2) | GI50 (RXF 393) | GI50 (SK-OV-3) | GI50 (SF-268) | GI50 (Malme-3M) | GI50 (OVCAR-8) | GI50 (LOX IMVI)
O=S(=O)(O)c1ccc2cc(/N=N/c3c(O)ccc4ccccc34)ccc2c1 | > 100 µM (inactive) | > 100 µM (inactive) | > 100 µM (inactive) | > 100 µM (inactive) | > 100 µM (inactive) | > 100 µM (inactive) | > 100 µM (inactive) | > 100 µM (inactive) | > 100 µM (inactive) | 69.2 µM (inactive) | > 100 µM (inactive) | > 100 µM | > 100 µM (inactive) | > 100 µM (inactive) | > 100 µM (inactive) | > 100 µM (inactive) | 82.6 µM (inactive) | > 100 µM (inactive) | 
C=CCO/N=C/c1cc(/N=C(/S)c2ccoc2C)ccc1Cl | 10.3 µM (inactive) | 22.6 µM (inactive) | 16.6 µM (inactive) | 13.6 µM (inactive) | 11.9 µM (inactive) | 7.26 µM (inactive) | 11.4 µM (inactive) | 9.48 µM (inactive) | 9.84 µM (inactive) | 24.4 µM (inactive) | 20 µM (inactive) | 8.26 µM | 13.6 µM (inactive) | 21.3 µM (inactive) | 18 µM (inactive) | 14.8 µM (inactive) | 15 µM (inactive) | 13.5 µM (inactive) | 14.6 µM (inactive)
O=C1N/N=C\Nc2ccc(cc2)S(=O)(=O)c2ccc(cc2)/N=C\NNC1=O | > 100 µM (inactive) | > 100 µM (inactive) | > 100 µM (inactive) | > 100 µM (inactive) | > 100 µM (inactive) | > 100 µM (inactive) | > 100 µM (inactive) | > 100 µM (inactive) | > 100 µM (inactive) | > 100 µM (inactive) | 20 µM (inactive) | > 100 µM | > 100 µM (inactive) | > 100 µM (inactive) | > 100 µM (inactive) | > 100 µM (inactive) |  | > 100 µM (inactive) | > 100 µM (inactive)
COc1cc(C(=O)N(C(=S)OC23CC4CC(CC(C4)C2)C3)c2ccccc2)cc(OC)c1OC | 17.7 µM (inactive) | 25.6 µM (inactive) | 18.9 µM (inactive) | 25.1 µM (inactive) | 14.8 µM (inactive) | 22.8 µM (inactive) | 16.1 µM (inactive) | 22.1 µM (inactive) | 31.3 µM (inactive) | 27.4 µM (inactive) | 24.9 µM (inactive) | 26.5 µM | 15.2 µM (inactive) | 32.7 µM (inactive) | 25.8 µM (inactive) | 35.6 µM (inactive) | 29.1 µM (inactive) | 27 µM (inactive) | 
CC(C)(C)OCC1NC(=O)[C@@H]2Cc3c([nH]c4ccccc34)C(C3CCCCC3)N2C1=O (stereo partly specified) | 18 µM (inactive) | 22.5 µM (inactive) | 19.3 µM (inactive) | 16.7 µM (inactive) | 27.2 µM (inactive) | 21.1 µM (inactive) | 15.2 µM (inactive) | 18.2 µM (inactive) | 17.7 µM (inactive) | 20.8 µM (inactive) | 32.2 µM (inactive) | 24 µM | 20.7 µM (inactive) | 15.6 µM (inactive) | 51.4 µM (inactive) | 28.8 µM (inactive) | 21.1 µM (inactive) | 29.9 µM (inactive) | 16.9 µM (inactive)
CCCC(=O)Nc1cc(/C=C/C(=O)N2CC(CCl)c3ccc(N)cc32)n(C)c1 (stereo unspecified) | 0.284 µM (active) | 0.107 µM (active) | 0.337 µM (active) | 0.219 µM (active) | 0.368 µM (active) | 0.447 µM (active) | 0.11 µM (active) | 0.214 µM (active) | 0.0441 µM (active) | 0.277 µM (active) | 0.0223 µM (active) | 0.304 µM | 0.212 µM (active) | 0.0474 µM (active) | 0.47 µM (active) | 0.259 µM (active) | 0.18 µM (active) | 0.267 µM (active) | 0.148 µM (active)
O=C(N/N=C\c1cccc2c([N+](=O)[O-])cccc12)Nc1ccccc1 | 14.8 µM (inactive) | 16.6 µM (inactive) | 12.9 µM (inactive) | 13.1 µM (inactive) | 15.5 µM (inactive) | 12.4 µM (inactive) | 14.1 µM (inactive) | 13.9 µM (inactive) | 12.5 µM (inactive) | 13.2 µM (inactive) | 16.5 µM (inactive) | 11.2 µM | 2.27 µM (inactive) | 7.53 µM (inactive) |  | 21.6 µM (inactive) | 14.1 µM (inactive) | 12 µM (inactive) | 7.74 µM (inactive)
O=C(Sc1n[nH]c(=O)[nH]c1=O)c1cccc2nc3ccccc3nc12 | 13.5 µM (inactive) | > 100 µM (inactive) | 23.6 µM (inactive) | 11.8 µM (inactive) | > 100 µM (inactive) | > 100 µM (inactive) | 3.41 µM (inactive) | 57 µM (inactive) | 78.3 µM (inactive) | 20 µM (inactive) | > 100 µM (inactive) | 26.7 µM | 68.2 µM (inactive) | > 100 µM (inactive) | > 100 µM (inactive) | > 100 µM (inactive) | 5.64 µM (inactive) | > 100 µM (inactive) | 18.5 µM (inactive)
CCCCC(=O)Oc1ccc2c(C)cc(=O)oc2c1 | > 100 µM (inactive) | > 100 µM (inactive) | > 100 µM (inactive) | > 100 µM (inactive) | > 100 µM (inactive) | > 100 µM (inactive) | > 100 µM (inactive) | > 100 µM (inactive) | > 100 µM (inactive) | > 100 µM (inactive) | > 100 µM (inactive) |  | > 100 µM (inactive) | > 100 µM (inactive) |  | > 100 µM (inactive) | > 100 µM (inactive) | > 100 µM (inactive) | > 100 µM (inactive)
COC(=O)[C@@H](NC(=O)N(CCC#N)CCCN(C(=O)N[C@H](Cc1ccccc1)C(=O)OC)c1ccccc1)C(C)C |  | > 100 µM (inactive) | > 100 µM (inactive) | 95.3 µM (inactive) | > 100 µM (inactive) | > 100 µM (inactive) | 62.2 µM (inactive) | > 100 µM (inactive) | > 100 µM (inactive) | > 100 µM (inactive) | > 100 µM (inactive) | 86.3 µM | 40.6 µM (inactive) | 95.9 µM (inactive) | > 100 µM (inactive) | 84.1 µM (inactive) | 28.1 µM (inactive) | > 100 µM (inactive) | 97.3 µM (inactive)
CC(C)(CN1CCCCC1)C(=O)CC(SCCS(=O)(=O)O)c1ccc(Cl)c(Cl)c1 (stereo unspecified) | 3.08 µM (inactive) | 1.86 µM (inactive) | 1.92 µM (inactive) | 3.09 µM (inactive) | 6.59 µM (inactive) | 3.21 µM (inactive) | 8.73 µM (inactive) | 3.25 µM (inactive) | 2.97 µM (inactive) | 2.8 µM (inactive) | 3.56 µM (inactive) | 2.07 µM | 24 µM (inactive) | 3.16 µM (inactive) | 29.7 µM (inactive) | 3.72 µM (inactive) | 4.1 µM (inactive) | 2.75 µM (inactive) | 
Cc1c(C)c(C)c(-n2c(=O)n(C)c(=O)n2-n2c(=O)n(C)c(=O)n2-c2c(C)c(C)c(C)c(C)c2C)c(C)c1C | > 100 µM (inactive) | > 100 µM (inactive) | > 100 µM (inactive) | > 100 µM (inactive) | > 100 µM (inactive) | 61.2 µM (inactive) | > 100 µM (inactive) |  | > 100 µM (inactive) | 0.0533 µM (active) | > 100 µM (inactive) | > 100 µM | > 100 µM (inactive) | > 100 µM (inactive) | > 100 µM (inactive) | > 100 µM (inactive) | > 100 µM (inactive) | > 100 µM (inactive) | 92.5 µM (inactive)
C=C1[C@H](OCC(C)C)[C@@H](OCC(C)C)[C@@H](O)C(C)(C)/C=C/[C@H](C)C(=O)[C@@]2(O)C[C@H](C)[C@H](O)[C@@H]2[C@H]1OCC(C)C |  | 4.49 µM (inactive) | 2.14 µM (inactive) | 1.54 µM (inactive) |  | > 7.5 µM (inactive) | 7.18 µM (inactive) | 2.51 µM (inactive) | 2.57 µM (inactive) | 2.77 µM (inactive) | 3.23 µM (inactive) | 6.92 µM | > 7.5 µM (inactive) | > 7.5 µM (inactive) | > 7.5 µM (inactive) | 6.24 µM (inactive) |  | > 7.5 µM (inactive) | > 7.5 µM (inactive)
O=[As](O)(O)c1ccc(/N=N/c2ccc([As](=O)(O)O)cc2)cc1 | > 100 µM (inactive) | > 100 µM (inactive) | > 100 µM (inactive) | > 100 µM (inactive) | > 100 µM (inactive) | > 100 µM (inactive) | > 100 µM (inactive) | > 100 µM (inactive) | > 100 µM (inactive) | > 100 µM (inactive) | > 100 µM (inactive) | > 100 µM | > 100 µM (inactive) | > 100 µM (inactive) |  | > 100 µM (inactive) | > 100 µM (inactive) | > 100 µM (inactive) | > 100 µM (inactive)
Cc1cc(S(=O)(=O)Nc2n[nH]c(-c3ccc(Cl)cc3)n2)c(SSc2cc(Cl)c(C)cc2S(=O)(=O)Nc2n[nH]c(-c3ccc(Cl)cc3)n2)cc1Cl | 23.6 µM (inactive) | 33.7 µM (inactive) | 39.9 µM (inactive) | 41.3 µM (inactive) | 32.5 µM (inactive) | 47.1 µM (inactive) | 33.2 µM (inactive) | 31.7 µM (inactive) | 34.2 µM (inactive) | 28.2 µM (inactive) | 24.6 µM (inactive) | 25.1 µM |  | 25.1 µM (inactive) | 39.5 µM (inactive) | 34.1 µM (inactive) | 46.3 µM (inactive) | 34.4 µM (inactive) | 26.2 µM (inactive)
